Patent publication US10695296B2, “Formulations, methods, kit, and dosage forms for improved stability of an active pharmaceutical ingredient” (Asana BioSciences, LLC, priority 2017, dated 2020)

Tests used:
advanced solid tumors = experiment: Preliminary efficacy / disposition of human subjects; type: in vivo
Experimental: A pharmaceutical formulation of the disclosure comprising the active ingredient N-(3-(2-(6-amino-4-(trifluoromethyl)pyridin-3-yl)-4-morpholinopyrido[3,2-d]pyrimidin-6-yl)-2-fluorophenyl)-3-fluoropropane-1-sulfonamide was evaluated for safety/tolerability and preliminary efficacy in eligible human subjects with advanced solid tumors, and the pharmacokinetic (PK) profile of the active ingredient was investigated for each subject. Eligibility criteria for inclusion in this study included:
The pharmaceutical formulation of the disclosure discussed in Example 8 above was evaluated for safety/tolerability and preliminary efficacy in eligible human subjects with advanced solid tumors. The clinical trial design followed in Example 8 of this disclosure is shown in FIG. 15, and the patient demographics and disposition of the subjects tested in Example 8 are given in Table 7 below.

ST052B tumor = ST052B tumor xenograft model (vemurafenib-sensitive melanoma); type: in vivo; settings: ST052B xenograft mice, oral BID; active ingredient at 20 mg/kg; over the vehicle control
Experimental: The ST052B tumor is derived from a melanoma patient prior to treatment with vemurafenib. ST052B tumor cells were implanted into mice to form xenograft tumors, and the mice were dosed orally BID in four treatment groups: 1) vehicle control; 2) Dabrafenib; […]; 3) active ingredient (N-(3-(2-(6-amino-4-(trifluoromethyl)pyridin-3-yl)-4-morpholinopyrido[3,2-d]pyrimidin-6-yl)-2-fluorophenyl)-3-fluoropropane-1-sulfonamide) at 10 mg/kg; and 4) the same active ingredient at 20 mg/kg.

`Nc1cc(C(F)(F)F)c(-c2nc(N3CCOCC3)c3nc(-c4cccc(NS(=O)(=O)CCCF)c4F)ccc3n2)cn1` [CMPD A, N-(3-(2-(6-amino-4-(trifluoromethyl)pyridin-3-yl)-4-morpholinopyrido[3,2-d]pyrimidin-6-yl)-2-fluorophenyl)-3-fluoropropane-1-sulfonamide] was tested, and the “Diagnosis/Status Summary” value (advanced solid tumors; subject 101-002, Cohort 1 (10 mg QD), NSCLC (KRAS)) was “NSCLC (KRAS)/Discontinued, RECIST PD”, the “Diagnosis/Status Summary” value (advanced solid tumors; subject 101-003, Cohort 3 (40 mg QD), Endometrial adenocarcinoma (PIK3ca, KRAS)) was “Discontinued, RECIST PD” and the “Diagnosis/Status Summary” value (advanced solid tumors; subject 101-004, Cohort 5 (120 mg QD), Melanoma (BRAFv600e)) was “Melanoma (BRAFv600e)/Discontinued, RECIST PD”. For the same molecule, the “Diagnosis/Status Summary” value (advanced solid tumors; subject 101-005, additional 80 mg QD, Colon (PI3Kca, KRAS)) was “Colon (PI3Kca, KRAS)/Discontinued, RECIST PD”, the “Diagnosis/Status Summary” value (advanced solid tumors; subject 101-007, additional 120 mg QD, Colon (NRAS)) was “Colon (NRAS)/Discontinued, RECIST PD” and the “Diagnosis/Status Summary” value (advanced solid tumors; subject 101-008, additional 240 mg QD, Colon (KRAS)) was “Colon (KRAS)/Discontinued RECIST PD”. The “Diagnosis/Status Summary” value (advanced solid tumors; subject 101-009, Cohort 7 (400 mg QD), Rectal (KRAS)) was “Rectal (KRAS)/Discontinued RECIST PD”, the “Diagnosis/Status Summary” value (advanced solid tumors; subject 102-001, Cohort 2 (20 mg QD), Duodenal adenocarcinoma (AKT1, EFGR, c-MET)) was “Discontinued, SAE, RECIST PD” and the “Diagnosis/Status Summary” value (advanced solid tumors; subject 102-002, Cohort 4 (80 mg QD), Appendix adenocarcinoma (BRAF, KRAS)) was “Discontinued, RECIST PD”. For the same molecule, the “Diagnosis/Status Summary” value (advanced solid tumors; subject 102-003, additional 40 mg QD, Parotid myoepithelial carcinoma (PI3Kca)) was “Discontinued, RECIST PD”, the “Diagnosis/Status Summary” value (advanced solid tumors; subject 102-004, additional 120 mg QD, Pancreatic (KRAS)) was “Pancreatic (KRAS)/Discontinued, RECIST PD” and the “Diagnosis/Status Summary” value (advanced solid tumors; subject 102-005, Cohort 8 (400 mg BID), Melanoma (BRAFv600e)) was “Melanoma (BRAFv600e)/Ongoing-Cycle 1”. The “Diagnosis/Status Summary” value (advanced solid tumors; subject 103-001, Cohort 6 (240 mg QD), Cholangiocarcinoma (PIK3CA)) was “Cholangiocarcinoma (PIK3CA)/Ongoing-Cycle 3” and the “inhibition of tumor growth” value (ST052B tumor) was “dose-dependent inhibition of tumor growth”.
